Measurements taken from ChEMBL document CHEMBL1142912, “Novel piperazines: potent melanocortin-4 receptor antagonists with anxiolytic-like activity” (Bioorg Med Chem, 2007).
pIC50: −log10 of the molar value. Active and inactive are the calls of the source. No cut-off for these calls is given here.

What was measured:
[1] = target: T1, Adrenergic receptor alpha-1 (Rattus norvegicus, UniProt P15823+P23944+P43140); assay: Displacement of [3H]prazosin from Adrenergic alpha-1 receptor in rat cortical membrane; type: cell membranes
T1 sequence (P15823 whole entry): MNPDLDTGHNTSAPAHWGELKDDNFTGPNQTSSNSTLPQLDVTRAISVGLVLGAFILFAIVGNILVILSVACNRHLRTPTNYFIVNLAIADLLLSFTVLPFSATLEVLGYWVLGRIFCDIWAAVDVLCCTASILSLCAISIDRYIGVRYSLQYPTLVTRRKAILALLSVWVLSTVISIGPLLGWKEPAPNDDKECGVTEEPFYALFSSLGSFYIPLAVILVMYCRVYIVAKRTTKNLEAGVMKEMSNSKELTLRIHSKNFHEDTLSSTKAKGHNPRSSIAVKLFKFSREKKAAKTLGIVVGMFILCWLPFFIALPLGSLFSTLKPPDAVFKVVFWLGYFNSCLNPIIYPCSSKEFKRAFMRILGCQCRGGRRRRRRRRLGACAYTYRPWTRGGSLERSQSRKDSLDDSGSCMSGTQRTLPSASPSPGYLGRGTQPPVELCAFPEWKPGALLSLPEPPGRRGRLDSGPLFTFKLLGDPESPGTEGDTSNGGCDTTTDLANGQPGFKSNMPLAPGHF
T1 sequence (P23944 whole entry): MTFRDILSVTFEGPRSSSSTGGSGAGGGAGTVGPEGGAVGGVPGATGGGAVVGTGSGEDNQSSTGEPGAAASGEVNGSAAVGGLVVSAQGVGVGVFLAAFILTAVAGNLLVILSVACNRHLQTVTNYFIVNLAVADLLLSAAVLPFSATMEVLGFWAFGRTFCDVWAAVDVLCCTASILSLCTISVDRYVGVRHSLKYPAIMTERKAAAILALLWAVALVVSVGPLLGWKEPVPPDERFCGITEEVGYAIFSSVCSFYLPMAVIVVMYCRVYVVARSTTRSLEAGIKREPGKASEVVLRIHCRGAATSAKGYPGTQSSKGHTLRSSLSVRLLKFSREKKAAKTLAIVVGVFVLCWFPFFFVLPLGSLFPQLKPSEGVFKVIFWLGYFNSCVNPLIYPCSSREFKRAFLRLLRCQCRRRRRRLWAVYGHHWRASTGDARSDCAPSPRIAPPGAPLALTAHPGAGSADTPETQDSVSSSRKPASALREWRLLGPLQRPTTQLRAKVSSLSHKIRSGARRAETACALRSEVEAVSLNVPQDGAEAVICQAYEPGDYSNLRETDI
T1 sequence (P43140 whole entry): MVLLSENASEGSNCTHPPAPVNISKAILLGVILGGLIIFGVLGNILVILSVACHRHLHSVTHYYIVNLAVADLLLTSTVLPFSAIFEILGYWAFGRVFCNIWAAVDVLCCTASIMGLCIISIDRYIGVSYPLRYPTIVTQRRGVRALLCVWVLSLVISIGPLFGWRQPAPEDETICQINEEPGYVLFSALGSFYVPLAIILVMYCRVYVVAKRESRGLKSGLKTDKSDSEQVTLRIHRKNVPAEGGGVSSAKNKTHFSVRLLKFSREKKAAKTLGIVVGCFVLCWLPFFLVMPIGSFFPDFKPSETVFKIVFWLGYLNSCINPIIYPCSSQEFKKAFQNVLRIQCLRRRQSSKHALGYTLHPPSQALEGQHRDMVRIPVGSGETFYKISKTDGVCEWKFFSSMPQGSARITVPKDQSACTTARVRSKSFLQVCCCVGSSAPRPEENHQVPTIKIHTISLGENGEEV

[2] = target: Histamine H1 receptor (Rattus norvegicus, UniProt P31390); assay: Displacement of [3H]pyrilamine from histamine H1 receptor in rat brain membrane; type: cell membranes
Histamine H1 receptor, sequence (P31390 whole entry): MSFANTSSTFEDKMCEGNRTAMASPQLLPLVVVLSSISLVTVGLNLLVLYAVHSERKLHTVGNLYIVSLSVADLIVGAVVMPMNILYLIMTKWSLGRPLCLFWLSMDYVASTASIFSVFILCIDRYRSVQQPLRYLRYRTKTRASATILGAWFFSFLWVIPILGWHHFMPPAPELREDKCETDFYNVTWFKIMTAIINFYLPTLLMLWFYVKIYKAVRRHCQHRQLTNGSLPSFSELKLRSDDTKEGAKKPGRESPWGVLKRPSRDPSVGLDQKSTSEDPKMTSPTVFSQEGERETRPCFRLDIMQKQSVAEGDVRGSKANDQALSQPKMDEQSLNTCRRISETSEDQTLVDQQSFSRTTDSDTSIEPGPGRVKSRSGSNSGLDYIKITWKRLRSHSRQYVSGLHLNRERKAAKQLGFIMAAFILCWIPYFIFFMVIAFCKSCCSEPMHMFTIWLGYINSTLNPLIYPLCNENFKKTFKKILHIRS

[3] = target: D(2) dopamine receptor (Rattus norvegicus, UniProt P61169); assay: Displacement of [3H]raclopride from dopamine receptor D2 in rat striatal membrane; type: cell membranes, Striatum
D(2) dopamine receptor, sequence (P61169 whole entry): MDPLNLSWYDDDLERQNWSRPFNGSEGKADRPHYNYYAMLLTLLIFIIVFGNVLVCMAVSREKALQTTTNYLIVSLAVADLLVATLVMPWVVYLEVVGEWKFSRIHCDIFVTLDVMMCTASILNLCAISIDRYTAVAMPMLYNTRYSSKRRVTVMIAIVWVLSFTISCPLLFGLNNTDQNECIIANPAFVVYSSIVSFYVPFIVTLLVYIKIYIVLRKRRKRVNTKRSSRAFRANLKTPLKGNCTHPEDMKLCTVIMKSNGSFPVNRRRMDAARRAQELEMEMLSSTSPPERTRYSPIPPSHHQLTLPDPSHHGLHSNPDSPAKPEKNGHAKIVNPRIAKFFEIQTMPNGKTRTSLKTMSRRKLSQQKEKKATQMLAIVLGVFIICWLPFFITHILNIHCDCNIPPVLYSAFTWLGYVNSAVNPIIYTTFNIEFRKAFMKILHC

[4] = target: Mu-type opioid receptor (Rattus norvegicus, UniProt P33535); assay: Displacement of [3H]DAMGO from mu opioid receptor in rat brain membrane; type: cell membranes
Mu-type opioid receptor, sequence (P33535 whole entry): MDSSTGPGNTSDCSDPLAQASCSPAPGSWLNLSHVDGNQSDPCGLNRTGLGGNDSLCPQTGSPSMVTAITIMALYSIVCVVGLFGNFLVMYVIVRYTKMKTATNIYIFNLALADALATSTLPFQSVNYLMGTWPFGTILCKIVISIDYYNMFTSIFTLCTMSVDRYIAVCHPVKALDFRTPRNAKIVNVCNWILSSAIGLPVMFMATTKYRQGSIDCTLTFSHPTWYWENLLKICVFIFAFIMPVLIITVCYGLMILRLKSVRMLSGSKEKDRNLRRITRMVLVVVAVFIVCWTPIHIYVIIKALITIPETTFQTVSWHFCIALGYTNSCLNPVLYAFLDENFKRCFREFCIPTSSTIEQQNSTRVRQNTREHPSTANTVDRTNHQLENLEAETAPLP

[5] = target: Delta-type opioid receptor (Rattus norvegicus, UniProt P33533); assay: Displacement of [3H]DPDPE from delta opioid receptor in rat brain membrane; type: cell membranes
Delta-type opioid receptor, sequence (P33533 whole entry): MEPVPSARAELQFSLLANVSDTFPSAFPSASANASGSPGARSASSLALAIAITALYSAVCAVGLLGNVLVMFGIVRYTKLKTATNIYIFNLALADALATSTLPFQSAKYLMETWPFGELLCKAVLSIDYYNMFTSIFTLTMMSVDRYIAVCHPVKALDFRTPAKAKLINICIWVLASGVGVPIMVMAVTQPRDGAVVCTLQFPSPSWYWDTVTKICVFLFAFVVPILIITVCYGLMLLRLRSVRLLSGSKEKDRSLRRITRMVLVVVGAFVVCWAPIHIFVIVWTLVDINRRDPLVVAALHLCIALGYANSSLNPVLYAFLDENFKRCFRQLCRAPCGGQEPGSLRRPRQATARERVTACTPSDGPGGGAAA

[6] = target: Melanocortin receptor 4 (Homo sapiens, UniProt P32245); assay: Displacement of [125I][Nle4,D-Phe7]alphaMSH from human MC4R expressed in COS7 cells; type: cell-based, COS-7
Melanocortin receptor 4, sequence (P32245 whole entry): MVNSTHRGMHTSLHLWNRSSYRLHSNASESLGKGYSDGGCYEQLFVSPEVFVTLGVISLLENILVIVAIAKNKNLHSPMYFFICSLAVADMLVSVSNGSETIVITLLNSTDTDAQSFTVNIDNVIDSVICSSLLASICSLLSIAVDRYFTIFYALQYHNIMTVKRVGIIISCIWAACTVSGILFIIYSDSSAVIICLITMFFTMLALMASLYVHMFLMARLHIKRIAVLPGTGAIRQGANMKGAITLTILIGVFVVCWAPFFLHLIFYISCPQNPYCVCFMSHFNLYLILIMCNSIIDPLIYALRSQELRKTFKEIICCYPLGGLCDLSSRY

[7] = target: Sodium-dependent serotonin transporter (Rattus norvegicus, UniProt P31652); assay: Displacement of [3H]paroxetine from serotonin transporter in rat cortical membrane; type: cell membranes
Sodium-dependent serotonin transporter, sequence (P31652 whole entry): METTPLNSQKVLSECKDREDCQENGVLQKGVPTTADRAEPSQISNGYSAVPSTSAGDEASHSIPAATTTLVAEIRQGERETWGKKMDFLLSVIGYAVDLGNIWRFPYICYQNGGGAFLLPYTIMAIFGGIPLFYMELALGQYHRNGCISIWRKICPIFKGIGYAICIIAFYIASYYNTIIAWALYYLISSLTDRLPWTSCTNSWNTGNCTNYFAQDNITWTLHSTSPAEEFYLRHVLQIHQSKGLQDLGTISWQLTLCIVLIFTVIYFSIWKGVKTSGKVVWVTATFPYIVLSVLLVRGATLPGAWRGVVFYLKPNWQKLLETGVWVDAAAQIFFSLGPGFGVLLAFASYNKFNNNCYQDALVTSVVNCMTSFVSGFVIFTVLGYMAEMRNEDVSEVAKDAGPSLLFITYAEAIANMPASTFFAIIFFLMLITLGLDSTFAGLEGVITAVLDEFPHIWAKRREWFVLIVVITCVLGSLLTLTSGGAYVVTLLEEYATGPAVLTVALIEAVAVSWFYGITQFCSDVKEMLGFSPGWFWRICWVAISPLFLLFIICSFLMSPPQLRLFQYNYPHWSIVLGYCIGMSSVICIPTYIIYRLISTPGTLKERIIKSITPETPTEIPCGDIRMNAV

[8] = target: Norepinephrine transporter (Rattus norvegicus, UniProt Q9WTR4); assay: Displacement of [3H]nisoxetine from NET in rat cortical membrane; type: cell membranes
Norepinephrine transporter, sequence (Q9WTR4 whole entry): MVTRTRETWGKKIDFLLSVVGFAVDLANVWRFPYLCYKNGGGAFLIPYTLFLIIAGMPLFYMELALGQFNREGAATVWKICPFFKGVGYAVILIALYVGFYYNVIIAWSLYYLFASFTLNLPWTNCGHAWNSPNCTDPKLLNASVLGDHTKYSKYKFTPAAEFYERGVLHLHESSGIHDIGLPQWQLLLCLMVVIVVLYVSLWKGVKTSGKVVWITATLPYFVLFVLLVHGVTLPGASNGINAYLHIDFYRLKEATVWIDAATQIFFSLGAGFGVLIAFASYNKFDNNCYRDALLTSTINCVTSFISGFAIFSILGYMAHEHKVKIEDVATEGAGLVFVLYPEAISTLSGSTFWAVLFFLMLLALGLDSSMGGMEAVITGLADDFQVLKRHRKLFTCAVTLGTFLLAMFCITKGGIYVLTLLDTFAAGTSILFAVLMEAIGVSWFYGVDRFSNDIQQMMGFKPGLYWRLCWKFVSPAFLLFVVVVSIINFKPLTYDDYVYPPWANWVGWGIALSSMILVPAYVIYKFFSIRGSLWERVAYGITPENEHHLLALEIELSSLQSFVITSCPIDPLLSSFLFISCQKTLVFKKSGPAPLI

[9] = system: Rattus norvegicus; assay: Reversal of stress-induced anxiety-like behavior in Sprague-Dawley rat at 1 mg/kg, po; type: functional, organism-based; design: dose 1 mg/kg

| Compound | IC50 [1] [nM] | pIC50 [2] | pIC50 [3] | pIC50 [4] | pIC50 [5] | pIC50 [6] | pIC50 [7] | pIC50 [8] | Activity [9] |
| --- | --- | --- | --- | --- | --- | --- | --- | --- | --- |
| CC(C)N1CCC(C(CN2CCN(CCCc3ccccc3-c3cccc(F)c3)CC2)c2ccc(F)cc2)CC1.Cl (racemic) | > 1000 | < 6.00 | 6.09 | < 5.00 | < 5.00 | 7.63 | 5.67 | 6.27 | – |
| COc1ccc2ccccc2c1CCCCN1CCN(CC(c2ccc(F)cc2)C2CCN(C(C)C)CC2)CC1.Cl (racemic) | > 1000 | < 6.00 | < 6.00 | < 5.00 | < 5.00 | 7.39 | 6.06 | 5.55 | – |
| CC(C)N1CCC(C(CN2CCN(CCCc3cc(F)ccc3-c3ccccc3)CC2)c2ccc(F)cc2)CC1 (racemic) | – | – | – | – | – | 7.28 | – | – | – |
| CC(C)N1CCC(C(CN2CCN(CCCc3ccccc3-c3ccc(F)cc3)CC2)c2ccc(F)cc2)CC1.Cl (racemic) | > 1000 | < 6.00 | 6.09 | < 5.00 | < 5.00 | 7.84 | 5.40 | 6.14 | – |
| CN1CCC(C(CN2CCN(CCCCc3cccc4ccccc34)CC2)c2ccc(F)cc2)CC1 (racemic) | – | – | – | – | – | 6.48 | – | – | – |
| CC(C)N1CCC(C(CN2CCN(CCCc3ccccc3-c3ccccc3F)CC2)c2ccc(F)cc2)CC1 (racemic) | – | – | – | – | – | 7.01 | – | – | – |

The next lines start with results.

| IC50 [1] [nM] | pIC50 [2] | pIC50 [3] | pIC50 [4] | pIC50 [5] | pIC50 [6] | pIC50 [7] | pIC50 [8] | Compound | Activity [9] |
| --- | --- | --- | --- | --- | --- | --- | --- | --- | --- |
| > 1000 | < 6.00 | 6.32 | < 5.00 | < 5.00 | 7.70 | 5.50 | 5.40 | CC(C)N1CCC(C(CN2CCN(CCCc3cccc(F)c3-c3ccccc3)CC2)c2ccc(F)cc2)CC1.Cl (racemic) | Active |
| – | – | – | – | – | 7.28 | – | – | CC(C)N1CCC(C(CN2CCN(CCCc3ccc(F)cc3-c3ccccc3)CC2)c2ccc(F)cc2)CC1 (racemic) | – |
| > 1000 | < 6.00 | < 6.00 | < 5.00 | < 5.00 | 7.74 | 6.14 | 6.31 | CC(C)N1CCC(C(CN2CCN(CCCc3c(F)cccc3-c3ccccc3)CC2)c2ccc(F)cc2)CC1.Cl (racemic) | – |
| > 1000 | < 6.00 | 6.37 | < 5.00 | < 5.00 | 7.71 | 6.02 | 5.93 | CC(C)N1CCC(C(CN2CCN(CCCc3ccccc3-c3ccccc3)CC2)c2ccc(F)cc2)CC1.Cl (racemic) | Active |
